Literature values in US12539267B2, “Product for dyeing keratinous material, containing aminosilicone, a chromophoric compound and organic carbonic acid ester” (Henkel AG & Co. KGaA, priority 2019, dated 2026).

Details: 25° C.

Compound	solubility in water (in words)	solubility in water
O=C([O-])C1=NN(c2ccc(S(=O)(=O)[O-])cc2)C(=O)C1N=Nc1ccc(S(=O)(=O)[O-])cc1.[Na+].[Na+].[Na+] (stereo not shown) [Acid Yellow 23, trisodium salt of 4,5-dihydro-5-oxo-1-(4-sulfophenyl)-4-((4-sulfophenyl)azo)-1H-pyrazole-3-carboxylic acid]	highly soluble in water	–
O=C([O-])c1c(Cl)c(Cl)c(Cl)c(Cl)c1-c1c2c(Br)cc(=O)c(Br)c-2oc2c(Br)c(O)cc(Br)c12.O=C([O-])c1c(Cl)c(Cl)c(Cl)c(Cl)c1-c1c2c(Br)cc(=O)c(Br)c-2oc2c(Br)c(O)cc(Br)c12.[Na+].[Na+] [Acid Red 92, disodium salt of 3,4,5,6-tetrachloro-2-(1,4,5,8-tetrabromo-6-hydroxy-3-oxoxanthen-9-yl)benzoic acid]	–	greater than 10 g/L
O=S(=O)([O-])c1ccc(N=Nc2c(O)ccc3ccccc23)cc1.[Na+] [Acid Orange 7, sodium salt of 4-[(2-hydroxy-1-naphthyl)azo]benzene sulphonate]	–	more than 7 g/L
Nc1cc(S(=O)(=O)[O-])cc2cc(S(=O)(=O)[O-])c(N=Nc3ccccc3)c(O)c12.[Na+].[Na+] [Acid Red 33, diantrium salt of 5-amino-4-hydroxy-3-(phenylazo)-naphthalene-2,7-disulphonate]	–	2500 µg/mL
